Data published in patent publication US20140206748A1, “COMPOSITIONS AND METHODS RELATED TO PROSTATE CANCER” (Regents of the University of Minnesota, priority 2013, published 2014).
Like-named read-outs stand apart in the source and are kept apart here.

Experiments:
[1] = test system: LNCaP cells; conditions: 0.1 nM DHT to 100 nM DHT
[2] = test system: LNCaP cells
Method: Normalized gene expression data was ranked using the Signal2Noise metric and GSEA was performed against 1000 random gene set permutations.

[3] = test system: castration-resistant prostate cancer patients; conditions: Phase III trials; cited from earlier work
[4] = test system: CWR-R1 cells; conditions: castrate conditions; 10 μM bicalutamide or 1 μM enzalutamide
[5] = test system: 22Rv1 cells; assay: Growth of 22Rv1 cells under castrate conditions (crystal violet staining); format: cell-based, human; conditions: CSS; 10 μM bicalutamide or 1 μM enzalutamide
[6] = test system: androgen receptor (AR); assay: MMTV-Luc reporter assay in CWR-R1 early and CWR-R1 late cells; format: cell-based, human; conditions: 1 nM mibolerone, 24 hours; CWR-R1 early vs CWR-R1 late cells

## C[C@]12CCC(=O)C[C@@H]1CC[C@@H]1[C@@H]2CC[C@]2(C)[C@@H](O)CC[C@@H]12 [DHT, dihydrotestosterone]
[1]
  PSA expression: increased concomitant with increasing androgen concentration
  expression of M-phase genes UBE2C, CDCA5, ZWINT, and CCNA2: biphasic response
[2]; 1 nM DHT and 100 nM DHT datasets
  enrichment of the "full-length AR" signature (GSEA): positive enrichment
[2]; 1 nM DHT dataset (GSE26483)
  enrichment of the "AR-V-specific" signature (GSEA): positive enrichment
[2]; 100 nM DHT dataset (GSE7868)
  enrichment of the "AR-V-specific" signature (GSEA): strong negative enrichment

## CNC(=O)c1ccc(N2C(=S)N(c3ccc(C#N)c(C(F)(F)F)c3)C(=O)C2(C)C)cc1F [enzalutamide]
[3]
  increase of overall survival: 4.8 months
[4]
  androgen-independent growth of deletion-enriched CWR-R1 cells: insensitive
[5]
  growth of 22Rv1 cells under castrate conditions: unaffected

## C[C@@H]1CC2=CC(=O)CC[C@@H]2[C@H]2CC[C@@]3(C)[C@@H](CC[C@]3(C)O)[C@@H]21 [mibolerone]
[6]
  AR transactivation (MMTV-Luc) in response to androgen: higher in CWR-R1 early cells than CWR-R1 late cells
